Measurements published in patent US12281095B2, “Pesticidally active diazine-amide compounds” (SYNGENTA CROP PROTECTION AG, priority 2019, dated 2025).

Assays:
Format in all cases: in vivo
[1] = tested on: Chilo suppressalis (Striped Rice Stemborer); experiment: Example B4: Chilo suppressalis (Striped Rice Stemborer), artificial diet; details: 144 h, application rate of 200 ppm, L2 larvae, 6 days after infestation, read-out: control in at least one of the three categories (mortality, anti-feedant or growth inhibition)
How it was run: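 Artificial diet was treated with aqueous dilutions made from 10'000 ppm DMSO stocks, dried, then infested with L2 larvae at 6–8 per well. Mortality, antifeedant effect and growth inhibition were assessed against untreated samples 6 days after infestation.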

[2] = tested on: Tetranychus urticae (Two-Spotted Spider Mite); experiment: Example B11: Tetranychus urticae (Two-Spotted Spider Mite), sprayed bean leaf discs; details: foliar, 192 h
Protocol: Example B11: Tetranychus urticae (Two-Spotted Spider Mite)
Bean leaf discs on agar in 24-well microtiter plates were sprayed with aqueous test solutions prepared from 10′000 ppm DMSO stock solutions. After drying the leaf discs were infested with a mite population of mixed ages. The samples were assessed for mortality on mixed population (mobile stages) 8 days after infestation.

[3] = tested on: Plutella xylostella (Diamondback Moth); experiment: Example B13: Plutella xylostella (Diamondback Moth), artificial diet, 96-well; details: 216 h, application rate of 500 ppm, eggs/L1 larvae, 9 days after infestation
Protocol: Example B13: Plutella xylostella (Diamondback Moth)
96-well microtiter plates containing artificial diet were treated with aqueous test solutions, prepared from 10′000 ppm DMSO stock solutions, by a liquid handling robot. After drying, eggs (˜30 per well) were infested onto a netted lid which was suspended above the diet. The eggs hatch and L1 larvae move down to the diet. The samples were assessed for mortality 9 days after infestation.

[4] = tested on: Plutella xylostella (Diamond Back Moth); experiment: Example B5: Plutella xylostella (Diamond Back Moth), artificial diet, 24-well; details: 192 h, application rate of 200 ppm, eggs, 8 days after infestation, read-out: control in at least one of the two categories (mortality or growth inhibition)
Protocol: Example B5: Plutella xylostella (Diamond Back Moth)
24-well microtiter plates with artificial diet were treated with aqueous test solutions prepared from 10′000 ppm DMSO stock solutions by pipetting. After drying, Plutella eggs were pipetted through a plastic stencil onto a gel blotting paper and the plate was closed with it. The samples were assessed for mortality and growth inhibition in comparison to untreated samples 8 days after infestation.

[5] = tested on: Diabrotica balteata (Corn Root Worm); experiment: Example B1: Diabrotica balteata (Corn Root Worm), sprayed maize sprouts; details: 96 h, application rate of 200 ppm, L2 larvae, 4 days after infestation, read-out: control in at least one of the two categories (mortality or growth inhibition)
Protocol: Example B1: Diabrotica balteata (Corn Root Worm)
Maize sprouts placed onto an agar layer in 24-well microtiter plates were treated with aqueous test solutions prepared from 10′000 ppm DMSO stock solutions by spraying. After drying, the plates were infested with L2 larvae (6 to 10 per well). The samples were assessed for mortality and growth inhibition in comparison to untreated samples 4 days after infestation.

[6] = tested on: Spodoptera littoralis (Egyptian Cotton Leaf Worm); experiment: Example B9: Spodoptera littoralis (Egyptian Cotton Leaf Worm), sprayed cotton leaf discs; details: foliar, 72 h, application rate of 200 ppm, L1 larvae, 3 days after infestation, read-out: control in at least one of the three categories (mortality, anti-feedant or growth inhibition)
[7] = tested on: Myzus persicae (Green Peach Aphid); experiment: Example B8: Myzus persicae (Green Peach Aphid): Intrinsic Activity; details: 120 h, test rate of 12 ppm, sucrose solution, 5 days after infestation
From the text: Example B8: Myzus persicae (Green Peach Aphid): Intrinsic Activity
Test compounds prepared from 10′000 ppm DMSO stock solutions were applied by pipette into 24-well microtiter plates and mixed with sucrose solution. The plates were closed with a stretched Parafilm. A plastic stencil with 24 holes was placed onto the plate and infested pea seedlings were placed directly on the Parafilm. The infested plate was closed with a gel blotting paper and another plastic stencil and then turned upside down. The samples were assessed for mortality 5 days after infestation.

[8] = tested on: Euschistus heros (Neotropical Brown Stink Bug); experiment: Example B2: Euschistus heros (Neotropical Brown Stink Bug), sprayed soybean leaves; details: 120 h, application rate of 200 ppm, N2 nymphs, 5 days after infestation, read-out: control in at least one of the two categories (mortality or growth inhibition)
Protocol: Example B2: Euschistus heros (Neotropical Brown Stink Bug)
Soybean leaves on agar in 24-well microtiter plates were sprayed with aqueous test solutions prepared from 10′000 ppm DMSO stock solutions. After drying the leaves were infested with N2 nymphs. The samples were assessed for mortality and growth inhibition in comparison to untreated samples 5 days after infestation.

[9] = tested on: Spodoptera littoralis (Egyptian Cotton Leaf Worm); experiment: Example B10: Spodoptera littoralis (Egyptian Cotton Leaf Worm), uptake by lettuce roots from agar; details: 144 h, test rate of 12.5 ppm, compound absorbed by lettuce roots, eggs, 6 days after infestation, read-out: control in at least one of the three categories (mortality, anti-feeding, or growth inhibition)
From the text: Example B10: Spodoptera littoralis (Egyptian Cotton Leaf Worm)
Test compounds were applied by pipette from 10′000 ppm DMSO stock solutions into 24-well plates and mixed with agar. Lettuce seeds were placed onto the agar and the multi well plate was closed by another plate which contained also agar. After 7 days the compound was absorbed by the roots and the lettuce grew into the lid plate. The lettuce leaves were then cut off into the lid plate. Spodoptera eggs were pipetted through a plastic stencil onto a humid gel blotting paper and the lid plate was closed with it. The samples were assessed for mortality, anti-feedant effect and growth inhibition in comparison to untreated samples 6 days after infestation.

[10] = tested on: Myzus persicae (Green Peach Aphid); experiment: Example B12: Myzus persicae (Green Peach Aphid), 96-well sucrose solution; details: 120 h, application rate of 50 ppm, 5 days after infestation
From the text: Example B12: Myzus persicae (Green Peach Aphid)
Test compounds prepared from 10′000 ppm DMSO stock solutions were applied by a liquid handling robot into 96-well microtiter plates and mixed with a sucrose solution. Parafilm was stretched over the 96-well microtiter plate and a plastic stencil with 96 holes was placed onto the plate. Aphids were sieved into the wells directly onto the Parafilm. The infested plates were closed with a gel blotting card and a second plastic stencil and then turned upside down. The samples were assessed for mortality 5 days after infestation.

[11] = tested on: Frankliniella occidentalis (Western Flower Thrips); experiment: Example B3: Frankliniella occidentalis (Western Flower Thrips): Feeding/Contact Activity; details: 168 h, application rate of 200 ppm, population of mixed ages, 7 days after infestation
Protocol: Example B3: Frankliniella occidentalis (Western Flower Thrips): Feeding/Contact Activity
Sunflower leaf discs were placed on agar in 24-well microtiter plates and sprayed with aqueous test solutions prepared from […] stock solutions. After drying the leaf discs were infested with a Frankliniella population of mixed ages. The samples were assessed for mortality 7 days after infestation.

[12] = tested on: Myzus persicae (Green Peach Aphid); experiment: Example B6: Myzus persicae (Green Peach Aphid): Feeding/Contact Activity; details: 144 h, application rate of 200 ppm, aphid population of mixed ages, 6 days after infestation
Protocol: Example B6: Myzus persicae (Green Peach Aphid): Feeding/Contact Activity
Sunflower leaf discs were placed onto agar in a 24-well microtiter plate and sprayed with aqueous test solutions prepared from 10′000 ppm DMSO stock solutions. After drying, the leaf discs were infested with an aphid population of mixed ages. The samples were assessed for mortality 6 days after infestation.

CC(NC(=O)c1cc(C(F)(F)F)nc(C2(C#N)CC2)c1)c1nccnc1-c1ccc(OCC(F)F)cn1 (stereo not shown) [P22, 2-(1-cyanocyclopropyl)-N-[1-[3-[5-(2,2-difluoroethoxy)-2-pyridyl]pyrazin-2-yl]ethyl]-6-(trifluoromethyl)pyridine-4-carboxamide]
≥ 80%: percent control (mortality, anti-feedant effect or growth inhibition) at 200 ppm [1] | mortality at 200 ppm [2] | mortality at 500 ppm [3] | percent control (mortality or growth inhibition) at 200 ppm [4] | percent control (mortality or growth inhibition) at 200 ppm [5] | percent control (mortality, anti-feedant effect or growth inhibition) at 200 ppm [6]

CC(NC(=O)c1cc(C(F)(F)F)nc(C2(C#N)CC2)c1)c1nccnc1-c1ncc(OCC(F)F)cn1 (stereo not shown) [P40, 2-(1-cyanocyclopropyl)-N-[1-[3-[5-(2,2-difluoroethoxy)pyrimidin-2-yl]pyrazin-2-yl]ethyl]-6-(trifluoromethyl)pyridine-4-carboxamide]
≥ 80%: percent control (mortality, anti-feedant effect or growth inhibition) at 200 ppm [1] | mortality at 12 ppm [7] | mortality at 500 ppm [3] | percent control (mortality or growth inhibition) at 200 ppm [4] | percent control (mortality or growth inhibition) at 200 ppm [8] | percent control (mortality, anti-feeding or growth inhibition) at 12.5 ppm [9] | percent control (mortality or growth inhibition) at 200 ppm [5] | percent control (mortality, anti-feedant effect or growth inhibition) at 200 ppm [6] | mortality at 50 ppm [10]

CC(NC(=O)c1cc(C(F)(F)F)cc(C(C)(C)C#N)c1)c1nccnc1-c1ncc(OCC(F)F)cn1 (stereo not shown) [P48, 3-(1-cyano-1-methyl-ethyl)-N-[1-[3-[5-(2,2-difluoroeth-oxy)pyrimidin-2-yl]pyrazin-2-yl]ethyl]-5-(trifluoro-methyl)benzamide]
≥ 80%: mortality at 200 ppm [11] | percent control (mortality, anti-feedant effect or growth inhibition) at 200 ppm [1] | mortality at 12 ppm [7] | percent control (mortality or growth inhibition) at 200 ppm [4] | percent control (mortality or growth inhibition) at 200 ppm [8] | percent control (mortality or growth inhibition) at 200 ppm [5] | percent control (mortality, anti-feedant effect or growth inhibition) at 200 ppm [6]

CC(NC(=O)c1cc(C(F)(F)F)cc(C2(C#N)CC2)c1)c1nccnc1-c1ncc(OC(F)F)cn1 (stereo not shown) [P32, 3-(1-cyanocyclopropyl)-N-[1-[3-[5-(difluoromethoxy)pyrimidin-2-yl]pyrazin-2-yl]ethyl]-5-(trifluoromethyl)benzamide]
≥ 80%: percent control (mortality, anti-feedant effect or growth inhibition) at 200 ppm [1] | mortality at 12 ppm [7] | mortality at 500 ppm [3] | percent control (mortality or growth inhibition) at 200 ppm [4] | percent control (mortality or growth inhibition) at 200 ppm [8] | percent control (mortality, anti-feeding or growth inhibition) at 12.5 ppm [9] | percent control (mortality or growth inhibition) at 200 ppm [5] | percent control (mortality, anti-feedant effect or growth inhibition) at 200 ppm [6] | mortality at 50 ppm [10]

CC(NC(=O)c1cc(C(F)(F)F)nc(C2(C#N)CC2)c1)c1nccnc1-c1ncc(OCC(F)(F)F)cn1 (stereo not shown) [P34, 2-(1-cyanocyclopropyl)-N-[1-[3-[5-(2,2,2-trifluoroethoxy)pyrimidin-2-yl]pyrazin-2-yl]ethyl]-6-(trifluoromethyl)pyridine-4-carboxamide]
≥ 80%: percent control (mortality, anti-feedant effect or growth inhibition) at 200 ppm [1] | mortality at 12 ppm [7] | mortality at 500 ppm [3] | percent control (mortality or growth inhibition) at 200 ppm [4] | percent control (mortality or growth inhibition) at 200 ppm [8] | percent control (mortality, anti-feeding or growth inhibition) at 12.5 ppm [9] | percent control (mortality or growth inhibition) at 200 ppm [5] | percent control (mortality, anti-feedant effect or growth inhibition) at 200 ppm [6] | mortality at 50 ppm [10]

CC(NC(=O)c1cc(OC(F)F)cc(C2(C#N)CC2)c1)c1nccnc1-c1ccc(C#N)cn1 (stereo not shown) [P44, 3-(1-cyanocyclopropyl)-N-[1-[3-(5-cyano-2-pyridyl)pyrazin-2-yl]ethyl]-5-(difluorometh-oxy)benzamide]
≥ 80%: mortality at 200 ppm [11] | percent control (mortality, anti-feedant effect or growth inhibition) at 200 ppm [1] | mortality at 12 ppm [7] | percent control (mortality or growth inhibition) at 200 ppm [4] | percent control (mortality or growth inhibition) at 200 ppm [5] | percent control (mortality, anti-feedant effect or growth inhibition) at 200 ppm [6]

CC(NC(=O)c1cc(C(F)(F)F)nc(C2(C#N)CC2)c1)c1nccnc1-c1ncc(OC(F)F)cn1 (stereo not shown) [P36, 2-(1-cyanocyclopropyl)-N-[1-[3-[5-(difluoromethoxy)pyrimidin-2-yl]pyrazin-2-yl]ethyl]-6-(trifluoromethyl)pyridine-4-carboxamide]
≥ 80%: percent control (mortality, anti-feedant effect or growth inhibition) at 200 ppm [1] | mortality at 500 ppm [3] | percent control (mortality or growth inhibition) at 200 ppm [4] | percent control (mortality or growth inhibition) at 200 ppm [8] | percent control (mortality, anti-feeding or growth inhibition) at 12.5 ppm [9] | percent control (mortality or growth inhibition) at 200 ppm [5] | percent control (mortality, anti-feedant effect or growth inhibition) at 200 ppm [6] | mortality at 50 ppm [10]

CC(NC(=O)c1cc(C(F)(F)F)cc(C2(C#N)CC2)c1)c1nccnc1-c1ncc(OCC(F)F)cn1 (stereo not shown) [P49, 3-(1-cyanocyclopropyl)-N-[1-[3-[5-(2,2-difluoroethoxy)pyrimidin-2-yl]pyrazin-2-yl]ethyl]-5-(trifluoromethyl)benzamide]
≥ 80%: mortality at 200 ppm [12] | percent control (mortality, anti-feedant effect or growth inhibition) at 200 ppm [1] | mortality at 12 ppm [7] | percent control (mortality or growth inhibition) at 200 ppm [4] | percent control (mortality or growth inhibition) at 200 ppm [8] | percent control (mortality or growth inhibition) at 200 ppm [5] | percent control (mortality, anti-feedant effect or growth inhibition) at 200 ppm [6]
